Measurements from patent US20030181426A1, “Compositions and methods for treating pain using cyclooxygenase-1 inhibitors” (priority 2002, published 2003).

What was measured:
tactile allodynia [1] = experiment: PSNL tactile allodynia, local and systemic ketorolac; type: in vivo, rats; settings: for duration of reversal of tactile allodynia: disappeared by day 5; for tactile allodynia in the ipsilateral paw: three hours after injection
Procedure: PSNL was performed as described above. […] Three rats in each group were also injected with normal saline to serve as controls. For all injections, rats were briefly anaesthetized by inhalation of 2-4% halothane/96% oxygen and air. Perineural injection was performed as previously described ([…] al. 1995). Briefly, the rat was held in lateral recumbency with the limb to be injected forming a right angle with a longitudinal axis of the trunk. The greater trochanter and ischial tuberosity were localized by palpation. On an imaginary line from the greater trochanter to the ischial tuberosity, about one third of the distance caudal to the greater trochanter, a 25-gauge injection needle was advanced from dorsolateral direction at a 45° angle until the tip encountered the ischium. A total volume of 0.2 mL was injected in a fanning motion along the path of the sciatic nerve.

[2] = Ketorolac concentration in cerebrospinal fluid (HPLC); type: in vivo, humans; settings: for concentration at 60 min: human, other: intrathecal (lumbar puncture), lumbar CSF 60 min after injection
Procedure: Escalation to the next dose was made only after review of side effects occurring at lower doses, with pre-defined stopping criteria. CSF samples were quantitatively extracted by C-18 reverse phase cartridge chromatography and eluted with acetonitrile. Concentrated eluates were injected on to a HPLC equipped with a Phenomenex 'Prodigy' C-18 reverse phase column (250 mm×4.6 mm). Peaks were detected with an Agilent Model 1100 UV detector set at a wavelength of 313. All unknowns, standards and controls contained an equal quantity of internal standard, 200 ng of indoprofen.

acute noxious heat = experiment: Heat pain testing with Peltier-controlled thermode in volunteers; type: in vivo, humans; settings: for Pain threshold temperatures: in °C (unit assumed)
[3] = test system: locomotor activity after laparotomy; experiment: Post-laparotomy locomotor activity model; type: in vivo, rats
phosphorylated CREB = experiment: pCREB immunoreactive cells in dorsal horn of PSNL rats; type: in vivo; settings: for increased number of pCREB-IR cells in the ipsilateral dorsal horn: 5 days after injection, three weeks after PSNL
Procedure: Quantitative analysis of the pCREB expression in the dorsal horn of PSNL rats receiving either saline or ketorolac intraplantar injection was conducted. […] However, no significant difference in the mean optical density in a fixed area occupied by pCREB-IR cells was detected between both sides of the dorsal horn.

PGE2 = experiment: CSF PGE2 concentrations in conscious dogs after i.t. ketorolac; type: in vivo; settings: within 30 min of injection
tactile allodynia [4] = experiment: L5 and L6 spinal nerve ligation (SNL) tactile allodynia, lidocaine and ketorolac; type: in vivo, male Sprague-Dawley rats
COX-1 and COX-2 = settings: as known in the art / Warner, 1999; cited from earlier work
[5] = i.t. 50 μg, compared to i.t. saline control
[6] = intraplantar injection, vs saline injected rats, P<0.01
[7] = intrathecal ketorolac 50 μg, 1 week after 200 μg intrathecal lidocaine
[8] = intrathecal ketorolac 50 μg, 1 week after 300 μg intrathecal lidocaine

SMILES: O=C(c1ccccc1)c1ccc2n1CCC2C(=O)O (centres unmarked) [ketorolac]
- duration of reversal of tactile allodynia (tactile allodynia [1]; 0.2 mL 0.5% intramuscular): 3 days
- tactile allodynia in the ipsilateral paw (tactile allodynia [1]; 0.2 mL 0.5% intramuscular): reversed
- duration of reversal of tactile allodynia (tactile allodynia [1]; 0.2 mL 0.5% intraperitoneal): 3 days
- tactile allodynia in the ipsilateral paw (tactile allodynia [1]; 0.2 mL 0.5% intraperitoneal): reversed
- tactile allodynia in the ipsilateral hindpaw (tactile allodynia [1]; 0.2 mL 0.5% intraplantar, 3 weeks after PSNL, three hours to 5 days): reversed the tactile allodynia
- antiallodynic effect (tactile allodynia [1]; 0.2 mL 0.5% peri-neural, 3 weeks after PSNL): slow onset of antiallodynic effect that was observed only 3 and 5 days after injection
- systemic toxicity at large doses (dog, in vivo): gastrointestinal ulceration and bleeding
- spinal neurotoxicity (i.t., dogs): no evidence for spinal neurotoxicity
- dose dependence of lumbar CSF drug concentration ([2]; 60 min after injection): apparent plateau at the 1 and 2 mg doses
- concentration at 60 min ([2]; 0.5 mg, 0.50 mg i.t.): 13400 ± 1200 ng/mL
- concentration at 60 min ([2]; 0.25 mg i.t.): 4600 ± 200 ng/mL
- concentration at 60 min ([2]; 1.0 mg i.t.): 30700 ± 8800 ng/mL
- concentration at 60 min ([2]; 2.0 mg i.t.): 33500 ± 5200 ng/mL
- temperature pain threshold (acute noxious heat; 0.5 mg i.t.): did not affect
- analgesic effect to acute noxious heat (pain magnitude report) (acute noxious heat; 0.5 mg i.t., moderate and severe pain intensities, FIG. 3): apparent effect
- Pain threshold temperatures (acute noxious heat; Arm, 0.25 mg i.t., 0.25 h): 45 ± 1.0
- Pain threshold temperatures (acute noxious heat; Arm, 0.25 mg i.t., 0.5 h): 44 ± 1.5
- Pain threshold temperatures (acute noxious heat; Arm, 0.25 mg i.t., 1 h): 45 ± 1.3
- Pain threshold temperatures (acute noxious heat; Arm, 0.25 mg i.t., 2 h): 44 ± 1.7
- Pain threshold temperatures (acute noxious heat; Arm, 0.25 mg i.t., 3 h): 45 ± 1.1
- Pain threshold temperatures (acute noxious heat; Arm, 0.25 mg i.t., 4 h): 44 ± 2.2
- Pain threshold temperatures (acute noxious heat; Arm, 0.25 mg i.t., 24 h): 46 ± 0.5
- Pain threshold temperatures (acute noxious heat; Arm, 0.25 mg i.t., time 0 h (injection at time 0)): 45 ± 1.1
- Pain threshold temperatures (acute noxious heat; Arm, 0.50 mg i.t., 0.25 h): 44 ± 1.9
- Pain threshold temperatures (acute noxious heat; Arm, 0.50 mg i.t., 0.5 h): 43 ± 1.2
- Pain threshold temperatures (acute noxious heat; Arm, 0.50 mg i.t., 1 h): 44 ± 1.7
- Pain threshold temperatures (acute noxious heat; Arm, 0.50 mg i.t., 2 h): 45 ± 1.9
- Pain threshold temperatures (acute noxious heat; Arm, 0.50 mg i.t., 3 h): 46 ± 1.7
- Pain threshold temperatures (acute noxious heat; Arm, 0.50 mg i.t., 4 h): 46 ± 1.7
- Pain threshold temperatures (acute noxious heat; Arm, 0.50 mg i.t., 24 h): 44 ± 1.7
- Pain threshold temperatures (acute noxious heat; Arm, 0.50 mg i.t., time 0 h (injection at time 0)): 45 ± 1.9
- Pain threshold temperatures (acute noxious heat; Arm, 1.0 mg i.t., 0.25 h): 41 ± 1.3
- Pain threshold temperatures (acute noxious heat; Arm, 1.0 mg i.t., 0.5 h): 40 ± 0.5
- Pain threshold temperatures (acute noxious heat; Arm, 1.0 mg i.t., 1 h): 39 ± 0.7
- Pain threshold temperatures (acute noxious heat; Arm, 1.0 mg i.t., 2 h): 41 ± 1.2
- Pain threshold temperatures (acute noxious heat; Arm, 1.0 mg i.t., 3 h): 42 ± 0.9
- Pain threshold temperatures (acute noxious heat; Arm, 1.0 mg i.t., 4 h): 42 ± 1.5
- Pain threshold temperatures (acute noxious heat; Arm, 1.0 mg i.t., 24 h): 41 ± 1.6
- Pain threshold temperatures (acute noxious heat; Arm, 1.0 mg i.t., time 0 h (injection at time 0)): 40 ± 0.5
- Pain threshold temperatures (acute noxious heat; Arm, 2.0 mg i.t., 0.25 h): 44 ± 1.9
- Pain threshold temperatures (acute noxious heat; Arm, 2.0 mg i.t., 0.5 h): 43 ± 1.4
- Pain threshold temperatures (acute noxious heat; Arm, 2.0 mg i.t., 1 h): 40 ± 2.1
- Pain threshold temperatures (acute noxious heat; Arm, 2.0 mg i.t., 2 h): 43 ± 1.8
- Pain threshold temperatures (acute noxious heat; Arm, 2.0 mg i.t., 3 h): 43 ± 1.6
- Pain threshold temperatures (acute noxious heat; Arm, 2.0 mg i.t., 4 h): 43 ± 1.9
- Pain threshold temperatures (acute noxious heat; Arm, 2.0 mg i.t., 24 h): 45 ± 2.3
- Pain threshold temperatures (acute noxious heat; Arm, 2.0 mg i.t., time 0 h (injection at time 0)): 44 ± 1.3
- Pain threshold temperatures (acute noxious heat; Leg, 0.25 mg i.t., 0.25 h): 45 ± 1.1
- Pain threshold temperatures (acute noxious heat; Leg, 0.25 mg i.t., 0.5 h): 46 ± 1.1
- Pain threshold temperatures (acute noxious heat; Leg, 0.25 mg i.t., 1 h): 47 ± 0.7
- Pain threshold temperatures (acute noxious heat; Leg, 0.25 mg i.t., 2 h): 46 ± 1.5
- Pain threshold temperatures (acute noxious heat; Leg, 0.25 mg i.t., 3 h): 45 ± 1.1
- Pain threshold temperatures (acute noxious heat; Leg, 0.25 mg i.t., 4 h): 46 ± 0.9
- Pain threshold temperatures (acute noxious heat; Leg, 0.25 mg i.t., 24 h): 45 ± 1.1
- Pain threshold temperatures (acute noxious heat; Leg, 0.25 mg i.t., time 0 h (injection at time 0)): 45 ± 1.3
- Pain threshold temperatures (acute noxious heat; Leg, 0.50 mg i.t., 0.25 h): 46 ± 2.4
- Pain threshold temperatures (acute noxious heat; Leg, 0.50 mg i.t., 0.5 h): 48 ± 2.2
- Pain threshold temperatures (acute noxious heat; Leg, 0.50 mg i.t., 1 h): 46 ± 1.7
- Pain threshold temperatures (acute noxious heat; Leg, 0.50 mg i.t., 2 h): 46 ± 2.5
- Pain threshold temperatures (acute noxious heat; Leg, 0.50 mg i.t., 3 h): 46 ± 1.7
- Pain threshold temperatures (acute noxious heat; Leg, 0.50 mg i.t., 4 h): 46 ± 2.4
- Pain threshold temperatures (acute noxious heat; Leg, 0.50 mg i.t., 24 h): 45 ± 2.0
- Pain threshold temperatures (acute noxious heat; Leg, 0.50 mg i.t., time 0 h (injection at time 0)): 45 ± 1.4
- Pain threshold temperatures (acute noxious heat; Leg, 1.0 mg i.t., 0.25 h): 42 ± 1.7
- Pain threshold temperatures (acute noxious heat; Leg, 1.0 mg i.t., 0.5 h): 42 ± 0.5
- Pain threshold temperatures (acute noxious heat; Leg, 1.0 mg i.t., 1 h): 44 ± 0.5
- Pain threshold temperatures (acute noxious heat; Leg, 1.0 mg i.t., 2 h): 42 ± 1.5
- Pain threshold temperatures (acute noxious heat; Leg, 1.0 mg i.t., 3 h): 43 ± 1.0
- Pain threshold temperatures (acute noxious heat; Leg, 1.0 mg i.t., 4 h): 43 ± 1.1
- Pain threshold temperatures (acute noxious heat; Leg, 1.0 mg i.t., 24 h): 42 ± 0.9
- Pain threshold temperatures (acute noxious heat; Leg, 1.0 mg i.t., time 0 h (injection at time 0)): 41 ± 1.3
- Pain threshold temperatures (acute noxious heat; Leg, 2.0 mg i.t., 0.25 h): 45 ± 1.4
- Pain threshold temperatures (acute noxious heat; Leg, 2.0 mg i.t., 0.5 h): 43 ± 1.3
- Pain threshold temperatures (acute noxious heat; Leg, 2.0 mg i.t., 1 h): 44 ± 2.1
- Pain threshold temperatures (acute noxious heat; Leg, 2.0 mg i.t., 2 h): 44 ± 2.3
- Pain threshold temperatures (acute noxious heat; Leg, 2.0 mg i.t., 3 h): 43 ± 1.6
- Pain threshold temperatures (acute noxious heat; Leg, 2.0 mg i.t., 4 h): 44 ± 1.8
- Pain threshold temperatures (acute noxious heat; Leg, 2.0 mg i.t., 24 h): 45 ± 2.2
- Pain threshold temperatures (acute noxious heat; Leg, 2.0 mg i.t., time 0 h (injection at time 0)): 45 ± 1.6
- response to suprathreshold stimuli (acute noxious heat; any dose (0.25-2 mg i.t.)): no effect
- threshold to heat pain in either the arm or the leg (acute noxious heat; i.t. 0.25-2 mg): unaffected
- analgesia to acute noxious heat (acute noxious heat; i.t., doses up to 1.0 mg): several hours of analgesia
- ambulatory locomotor activity after laparotomy [3, 5]: increased
- vertical locomotor activity after laparotomy [3, 5]: increased
- locomotor activity in the absence of surgery ([3]; ketorolac alone): no effect
- effect on morphine's effect on ambulatory activity ([3]; systemic ketorolac 5 mg/kg i.p. with morphine): potentiate morphine's effect
- ambulatory activity after laparotomy ([3]; systemic, 5 mg/kg i.p.): failed to affect ambulatory activity
- increased number of pCREB-IR cells in the ipsilateral dorsal horn (phosphorylated CREB; intraplantar injection): dramatically reduced
- mean optical density of pCREB-IR cells, contralateral dorsal horn (phosphorylated CREB; [6]): significantly decreased
- mean optical density of pCREB-IR cells, ipsilateral dorsal horn (phosphorylated CREB; [6]): significantly decreased
- number of pCREB-IR cells in the contralateral dorsal horn (phosphorylated CREB; local injection, compared with saline injected PSNL rats): also decreased
- increased number of pCREB-IR cells in the ipsilateral dorsal horn (phosphorylated CREB; peri-neural injection): dramatically reduced
- reduction of CSF PGE2 concentrations (PGE2): > 90%
- tactile allodynia caused by SNL (tactile allodynia [4]; intrathecal ketorolac 50 μg alone): failed to attenuate
- antiallodynic effect (tactile allodynia [4]; intrathecal ketorolac 50 μg, 1 week after 100 μg intrathecal lidocaine): failed to exert any antiallodynic effect
- duration of reversal of tactile allodynia (tactile allodynia [4]; [7]): 4 h
- tactile allodynia caused by SNL (tactile allodynia [4]; [7]): reversed tactile allodynia
- duration of reversal of tactile allodynia (tactile allodynia [4]; [8]): 4 h
- tactile allodynia caused by SNL (tactile allodynia [4]; [8]): reversed tactile allodynia
- SNL-induced tactile allodynia (tactile allodynia [4]; intrathecal ketorolac 50 μg, 1 week following prior intrathecal ketorolac 50 μg): failed to alleviate
- SNL-induced tactile allodynia (tactile allodynia [4]; intrathecal ketorolac 100 μg alone): failed to alleviate
- SNL-induced tactile allodynia (tactile allodynia [4]; intrathecal ketorolac 100 μg, 1 week after intrathecal lidocaine): exhibited the antiallodynic effect
- antiallodynic effect (tactile allodynia [4]; one day after intrathecal ketorolac, rats previously given 200 and 300 μg lidocaine): disappeared
- preference in inhibition of COX-1 and COX-2 (COX-1 and COX-2): one of the most selective COX-1 antagonists
